No end group written: not given here.
Legend:
[1] = in vivo; conditions: sheep, iv
Experimental: In this set of experiments, four normal healthy sheep were infused with human BNPsp(17-26) at 100-1000 ug/kg·min−1 to document any effects upon normal blood pressure, heart rate or renal function. This experiment was carried out to determine achieved circulating levels of BNPsp(17-26) in response to the dose given and to document any significant effects upon haemodynamic, renal or hormonal indices.

[2] = tested on: normal, healthy sheep; conditions: in vivo
Excerpt: Such a response is indicative of a well tolerated agent. […] This is a favourable profile in normal health.

[3] = tested on: isolated rat heart; assay: Modified BNPsp peptides, preconditioning in isolated rat heart (Example 6: 40 min global ischemia, 90 min reperfusion); conditions: preconditioned 30 minutes with 0.3 nmol/L; n=3
Experimental: This set of experiments assessed modified BNPsp(17-26) peptides. This experiment repeated the preconditioning work outlined in the isolated rat heart model Examples, but with C-terminal ablated and an N-terminal extended version of BNPsp(17-26). Hearts were preconditioned with 30 minute doses of 0.3 nmol/L BNPsp(16-26) and BNPsp(17-24) prior to 40 minutes of global ischemia and 90 minutes reperfusion. Cardiac contractile and perfusion pressure indices were recorded.

Row | Sequence | half-life [1] | haemodynamics, renal function or circulating biomarkers [2] | haemodynamic protective profile (developed pressure) [3]
1 | LHLAFLGGRS [BNPsp(17-26), LHLAFLGGRS] | < 1 min | no detectable changes | 
2 | LHLAFLGG (listed as Homo sapiens) [BNPsp(17-24), modified peptide with two C-terminal amino acids removed] |  |  | protective effect

Source: patent publication US9783574B2, “Cardiovascular therapeutics” (Otago Innovation Limited, priority 2011, dated 2017)
